The text below walks through data of patent publication US11572398B2, “GLP-1 derivatives and uses thereof” (Novo Nordisk A/S, priority 2014, dated 2023).

Broadly, the half-life is the time in which the quantity being followed falls by half. Broadly, the IC50 is the midpoint of a concentration-inhibition curve. Usually EC50 stands for the midpoint of the concentration-response curve.

One data set is described as follows: in vivo. The note with it: male, Göttingen, minipig, iv.
The target of data set [1] is T1, human GLP-1 receptor (Homo sapiens, UniProt P43220).
T1 construct: expressed in transfected cells; host or cells: BHK cells (parent line BHKTS13), clone FCW467-12A; membrane preparation
In words: GLP-1 receptor binding: competitive binding assay (125I-GLP-1, SPA) on isolated membranes at low and high HSA.

Data set [2] concerns the target T1, human GLP-1 receptor. The experiment in a line: In vitro potency: CRE luciferase reporter gene assay in BHK cells expressing the human GLP-1 receptor. The format is cell-based. The note with it: whole cell reporter gene assay, BHK cells, human GLP-1 receptor; average of at least two replicates; read-out: EC50. The method in brief:
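Whole-cell assay in stably transfected BHK cells carrying CRE-driven firefly luciferase, 5×10^3 cells/well, in assay buffer with 2% ovalbumin and 0.2% Pluronic F-68. Compound working solutions were 0.2 μM.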
In general terms: A reporter such as luciferase makes a cellular process visible.

[3] abbreviates: low HSA (max. 0.001% final assay concentration), read-out: Low HSA IC50.

Like-named read-outs stand apart in the source and are kept apart here.

T1 sequence (P43220 24-463): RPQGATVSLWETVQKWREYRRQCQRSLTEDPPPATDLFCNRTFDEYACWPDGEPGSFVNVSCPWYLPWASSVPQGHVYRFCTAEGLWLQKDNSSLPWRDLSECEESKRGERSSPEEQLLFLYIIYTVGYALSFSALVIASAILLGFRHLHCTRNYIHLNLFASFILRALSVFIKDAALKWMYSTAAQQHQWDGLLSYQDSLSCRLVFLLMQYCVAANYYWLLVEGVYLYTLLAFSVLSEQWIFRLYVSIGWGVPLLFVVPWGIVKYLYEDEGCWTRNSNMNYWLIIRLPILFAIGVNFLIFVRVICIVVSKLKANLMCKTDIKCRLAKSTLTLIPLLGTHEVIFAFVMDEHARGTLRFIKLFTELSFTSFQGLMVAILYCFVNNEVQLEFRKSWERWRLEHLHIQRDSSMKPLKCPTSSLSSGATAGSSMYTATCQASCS
Experimental for in vivo: The purpose of this study is to determine the protraction in vivo of the GLP-1 derivatives after i.v. administration to minipigs, i.e. the prolongation of their time in the body and thereby their time of action. This is done in a pharmacokinetic (PK) study, where the terminal half-life of the derivative in question is determined. By terminal half-life is meant the time it takes to halve a certain plasma concentration in the terminal elimination phase.
Male Göttingen minipigs were obtained from Ellegaard Göttingen Minipigs (Dalmose, Denmark) approximately 7-14 months of age and weighing approximately 16-35 kg were used in the studies. The minipigs were housed either individually (pigs with permanent catheters) or in a group and fed restrictedly once or twice daily with SDS minipig diet (Special Diets Services, Essex, UK).
After at least 2 weeks of acclimatisation two permanent central venous catheters were implanted in vena cava caudalis or cranialis in each animal. The animals were allowed 1 week recovery after the surgery, and were then used for repeated pharmacokinetic studies with a suitable wash-out period between successive GLP-1 derivative dosings.
Blood samples (for example 0.8 ml) were collected in EDTA buffer (8 mM) and then centrifuged at 4° C. and 1942G for 10 minutes.
Plasma was pipetted into Micronic tubes on dry ice, and kept at −20° C. until analysed for plasma concentration of the respective GLP-1 compound using LOCI. Individual plasma concentration-time profiles were analyzed by a non-compartmental pharmacokinetic method in Phoenix v. 6.2 (Pharsight Inc., Mountain View, Calif., USA), or other relevant software for PK analysis, and the resulting terminal half-lives (harmonic mean) determined.

Turning to `CC[C@H](C)[C@H](NC(=O)[C@H](Cc1ccccc1)NC(=O)[C@H](CCC(=O)O)NC(=O)[C@H](CCCNC(=N)N)NC(=O)[C@H](C)NC(=O)[C@H](C)NC(=O)[C@H](CCC(N)=O)NC(=O)[C@H](CCC(=O)O)NC(=O)[C@H](CCC(=O)O)NC(=O)[C@H](CC(C)C)NC(=O)[C@H](Cc1ccc(O)cc1)NC(=O)[C@H](CO)NC(=O)[C@H](CO)NC(=O)[C@@H](NC(=O)[C@H](CC(=O)O)NC(=O)[C@H](CO)NC(=O)[C@@H](NC(=O)[C@H](Cc1ccccc1)NC(=O)[C@@H](NC(=O)CNC(=O)[C@H](CCC(=O)O)NC(=O)C(C)(C)NC(=O)CCc1cnc[nH]1)[C@@H](C)O)[C@@H](C)O)C(C)C)C(=O)N[C@@H](C)C(=O)N[C@@H](Cc1c[nH]c2ccccc12)C(=O)N[C@@H](CC(C)C)C(=O)N[C@H](C(=O)N[C@@H](CCCNC(=N)N)C(=O)NCC(=O)N[C@@H](CCCNC(=N)N)C(=O)N[C@@H](CCCCNC(=O)CN(CCCNC(=O)COCCOCCNC(=O)COCCOCCNC(=O)COCCOCCNC(=O)COCCOCCNC(=O)[C@@H](N)CCCCNC(=O)[C@@H](N)CCCCNC(=O)CCCCCCCCCCCCCCCCCCC(=O)O)CCCNC(=O)COCCOCCNC(=O)COCCOCCNC(=O)COCCOCCNC(=O)COCCOCCNC(=O)[C@@H](N)CCCCNC(=O)[C@@H](N)CCCCNC(=O)CCCCCCCCCCCCCCCCCCC(=O)O)C(=O)O)C(C)C` [Example 4], in the data set “in vivo”, the half-life was 243 h. Also, the IC50 at human GLP-1 receptor [1] (setting [3]) turned out to be 0.13 nM.

Take `CC[C@H](C)[C@H](NC(=O)[C@H](Cc1ccccc1)NC(=O)[C@H](CCC(=O)O)NC(=O)[C@H](CCCNC(=N)N)NC(=O)[C@H](C)NC(=O)[C@H](C)NC(=O)[C@H](CCC(N)=O)NC(=O)[C@H](CCC(=O)O)NC(=O)[C@H](CCC(=O)O)NC(=O)[C@H](CC(C)C)NC(=O)[C@H](Cc1ccc(O)cc1)NC(=O)[C@H](CO)NC(=O)[C@H](CO)NC(=O)[C@@H](NC(=O)[C@H](CC(=O)O)NC(=O)[C@H](CO)NC(=O)[C@@H](NC(=O)[C@H](Cc1ccccc1)NC(=O)[C@@H](NC(=O)CNC(=O)[C@H](CCC(=O)O)NC(=O)C(C)(C)NC(=O)[C@@H](N)Cc1c[nH]cn1)[C@@H](C)O)[C@@H](C)O)C(C)C)C(=O)N[C@@H](C)C(=O)N[C@@H](Cc1c[nH]c2ccccc12)C(=O)N[C@@H](CC(C)C)C(=O)N[C@H](C(=O)N[C@@H](CCCNC(=N)N)C(=O)NCC(=O)N[C@@H](CCCNC(=N)N)C(=O)N[C@@H](CCCCNC(=O)CN(CCCNC(=O)CCOCCOCCOCCOCCOCCOCCOCCOCCOCCOCCOCCOCCOCCOCCOCCOCCOCCOCCOCCOCCOCCOCCOCCOCCNC(=O)[C@@H](N)CCCCNC(=O)[C@@H](N)CCCCNC(=O)CCCCCCCCCCCCCCCCCCC(=O)O)CCCNC(=O)CCOCCOCCOCCOCCOCCOCCOCCOCCOCCOCCOCCOCCOCCOCCOCCOCCOCCOCCOCCOCCOCCOCCOCCOCCNC(=O)[C@@H](N)CCCCNC(=O)[C@@H](N)CCCCNC(=O)CCCCCCCCCCCCCCCCCCC(=O)O)C(=O)O)C(C)C` [Example 6]: on human GLP-1 receptor [2], the EC50 came to 0.0072 nM. The compound further gave a half-life in “in vivo” of 143 h. Moreover, the IC50 at human GLP-1 receptor [1] (high HSA (2.0% final assay concentration), read-out: High HSA IC50) worked out at 9 nM; at human GLP-1 receptor [1] (setting [3]), 0.05 nM.
